Test results: the supplement of paper PMC10307832

Legend:
Assay in all cases: relative viability (nuclei count vs DMSO), 5 days (fraction); higher = more cells survive
AZD6482 + Alpelisib = compound: Cc1cc([C@@H](C)Nc2ccccc2C(=O)O)c2nc(N3CCOCC3)cc(=O)n2c1 [AZD6482] + Cc1nc(NC(=O)N2CCC[C@H]2C(N)=O)sc1-c1ccnc(C(C)(C)C(F)(F)F)c1 [Alpelisib] (partner 2 µM)
How it was run: (§1)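 Values are medians from duplicate plates. Each reflects relative viability, defined as the nuclei count of treated wells over that of vehicle wells. Lung cancer cell lines in 1536-well plates were pin-tool dosed one day after seeding with one drug alone or with a fixed anchor-drug dose plus five library-drug doses (not always all listed) in √10 steps, then fixed, stained and imaged at 4× after 5 days.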

[1] = compound: COc1cc2nc(N3CCCN(C)CC3)nc(NC3CCN(Cc4ccccc4)CC3)c2cc1OC + Cc1nc(NC(=O)N2CCC[C@H]2C(N)=O)sc1-c1ccnc(C(C)(C)C(F)(F)F)c1 [Alpelisib] (partner 2 µM)
How it was run: as §1

AZD6482 + Lapatinib = compound: Cc1cc([C@@H](C)Nc2ccccc2C(=O)O)c2nc(N3CCOCC3)cc(=O)n2c1 [AZD6482] + CS(=O)(=O)CCNCc1ccc(-c2ccc3ncnc(Nc4ccc(OCc5cccc(F)c5)c(Cl)c4)c3c2)o1 [Lapatinib] (partner 2 µM)
How it was run: as §1

[2] = compound: COc1cc2nc(N3CCCN(C)CC3)nc(NC3CCN(Cc4ccccc4)CC3)c2cc1OC + Nc1ncn([C@H]2C[C@H](O)[C@@H](CO)O2)c(=O)n1 [Decitabine] (partner 2 µM)
How it was run: as §1

Cell Line	relative viability (AZD6482 + Alpelisib; first compound 0.08 µM)	relative viability (AZD6482 + Alpelisib; first compound 0.253 µM)	relative viability (AZD6482 + Alpelisib; first compound 0.8 µM)	relative viability (AZD6482 + Alpelisib; first compound 2.53 µM)	relative viability (AZD6482 + Alpelisib; first compound 8 µM)	relative viability ([1]; first compound 0.2 µM)	relative viability ([1]; first compound 0.6325 µM)	relative viability ([1]; first compound 2 µM)	relative viability ([1]; first compound 6.325 µM)	relative viability (AZD6482 + Lapatinib; first compound 0.08 µM)	relative viability (AZD6482 + Lapatinib; first compound 0.253 µM)	relative viability (AZD6482 + Lapatinib; first compound 0.8 µM)	relative viability (AZD6482 + Lapatinib; first compound 2.53 µM)	relative viability (AZD6482 + Lapatinib; first compound 8 µM)	relative viability ([2]; first compound 0.2 µM)	relative viability ([2]; first compound 0.6325 µM)	relative viability ([2]; first compound 2 µM)	relative viability ([2]; first compound 6.325 µM)
201T	0.908	0.809	0.842	0.714	0.848	1.01	0.998	1.05	1.01	1.02	1.04	1.17	0.843	0.993	0.889	0.812	0.859	0.799
A549	0.585	0.552	0.43	0.275	0.361	0.694	0.8	0.761	0.722	0.944	0.891	0.913	0.485	0.571	0.227	0.238	0.263	–
A-427	1.08	0.967	1.04	0.952	1.06	1.12	0.98	0.997	1.08	0.97	0.869	1.08	0.777	1.1	0.602	0.551	0.589	0.531
ABC-1	0.741	0.819	1.05	0.702	0.826	0.955	0.988	1.18	0.92	1.07	1.16	1.07	1.03	0.932	0.969	1.09	0.929	1.19
BEN	0.866	0.886	1.11	0.828	0.947	1.07	1	1.13	1.06	0.732	0.722	0.671	0.553	0.687	0.765	0.743	0.914	0.699
CAL-12T	0.902	0.661	0.901	0.535	0.721	1.21	1.23	1.16	1.15	0.601	–	0.529	0.272	0.578	–	–	–	–
COR-L23	0.461	0.737	0.854	0.494	0.76	0.799	0.724	0.944	0.712	0.938	0.948	1.15	0.734	0.893	0.466	0.477	0.527	0.471
COR-L 105	0.771	0.837	0.784	0.517	0.728	1.11	0.86	1.08	0.732	0.382	0.326	0.351	0.364	0.355	0.687	0.685	0.648	0.492
Calu-6	0.812	0.847	0.873	0.75	0.926	0.884	0.926	1	0.976	1.05	1.07	1.14	0.879	0.953	–	–	–	–
ChaGo-K-1	–	–	–	–	–	–	–	–	–	–	–	–	–	–	0.553	0.506	0.49	0.504
EBC-1	0.32	0.346	0.27	0.177	0.299	0.82	0.798	0.787	0.697	0.184	0.196	0.211	0.218	0.216	–	–	–	–
EKVX	0.516	0.46	0.591	0.336	0.581	0.918	0.833	0.92	0.784	0.173	0.342	0.181	0.141	0.167	0.329	0.318	0.343	0.27
EMC-BAC-2	0.639	0.624	0.619	0.571	0.617	0.765	0.69	0.784	0.77	0.852	0.869	0.886	0.695	0.828	0.997	0.968	0.882	0.915
EPLC-272H	0.593	–	0.554	0.436	0.577	0.952	0.904	1.05	0.912	0.812	–	1.01	0.709	0.673	0.392	0.387	0.341	0.38
H3255	0.531	0.54	0.614	0.335	0.496	0.632	0.852	0.86	0.523	0.194	0.221	0.263	0.182	0.152	0.576	0.626	0.601	0.588
HARA	0.459	0.762	0.849	–	0.708	0.798	0.823	0.858	0.87	0.707	0.503	0.919	–	0.483	0.548	0.556	0.697	0.442
HCC-15	0.856	0.797	0.861	0.736	0.772	0.886	0.842	0.875	0.687	0.873	0.792	0.882	0.737	0.914	0.688	0.875	0.649	0.495
HCC-44	0.546	0.596	0.649	0.505	0.435	0.832	0.748	0.841	0.746	0.909	1.06	1.13	1.1	0.882	1.01	0.855	0.936	0.944

Cell Line	relative viability (AZD6482 + Alpelisib; first compound 0.08 µM)	relative viability (AZD6482 + Alpelisib; first compound 0.253 µM)	relative viability (AZD6482 + Alpelisib; first compound 0.8 µM)	relative viability (AZD6482 + Alpelisib; first compound 2.53 µM)	relative viability (AZD6482 + Alpelisib; first compound 8 µM)	relative viability ([1]; first compound 0.2 µM)	relative viability ([1]; first compound 0.6325 µM)	relative viability ([1]; first compound 2 µM)	relative viability ([1]; first compound 6.325 µM)	relative viability (AZD6482 + Lapatinib; first compound 0.08 µM)	relative viability (AZD6482 + Lapatinib; first compound 0.253 µM)	relative viability (AZD6482 + Lapatinib; first compound 0.8 µM)	relative viability (AZD6482 + Lapatinib; first compound 2.53 µM)	relative viability (AZD6482 + Lapatinib; first compound 8 µM)	relative viability ([2]; first compound 0.2 µM)	relative viability ([2]; first compound 0.6325 µM)	relative viability ([2]; first compound 2 µM)	relative viability ([2]; first compound 6.325 µM)
HCC-78	0.222	0.179	0.212	0.159	0.194	0.354	0.364	0.297	0.251	0.512	0.683	1.52	0.255	0.503	0.642	0.683	0.729	0.712
HCC-366	0.171	0.165	0.208	0.105	0.188	0.519	0.558	0.468	0.283	0.9	0.97	1.11	0.579	0.532	0.334	0.292	0.358	0.309
HCC-827	0.613	0.506	0.456	0.33	0.351	0.906	0.922	0.952	0.891	0.164	0.174	0.196	0.177	0.177	0.172	0.315	0.221	0.326
HOP-62	1	0.959	1.19	0.531	0.903	0.878	0.932	0.829	0.877	1.06	0.856	1.32	0.827	1.1	0.214	0.201	0.198	0.216
IA-LM	0.638	0.585	0.631	0.313	0.809	0.688	0.823	1.02	1.01	0.898	1.13	0.903	–	0.626	–	–	–	–
LC-2-ad	0.704	0.597	0.668	0.467	0.507	0.883	0.89	0.943	0.896	1.06	0.553	1.1	0.638	0.918	0.764	0.741	0.734	0.856
LCLC-97TM1	0.274	0.19	0.238	0.187	0.204	0.241	–	0.243	0.258	1.04	1.01	1.28	0.271	0.462	0.244	0.202	0.225	0.27
LCLC-103H	0.877	0.747	0.701	0.605	0.553	1.04	0.648	0.939	0.994	–	–	–	–	–	0.74	0.794	0.777	0.701
NCI-H441	0.65	0.834	0.592	0.532	0.66	0.919	–	0.601	0.655	–	–	–	–	–	0.239	0.225	0.3	0.206
NCI-H522	–	–	–	–	–	–	–	–	–	–	–	–	–	–	0.623	0.694	0.588	0.698
NCI-H1299	1.14	1.17	1.27	1.04	1.28	1.03	1.08	1.06	1.08	0.94	0.956	1.11	0.948	0.983	–	–	–	–
NCI-H1563	0.753	0.703	0.672	0.661	0.688	0.954	0.904	0.834	0.73	0.902	0.842	0.876	0.674	0.778	–	–	–	–
NCI-H1648	–	–	–	–	–	–	–	–	–	–	–	–	–	–	–	0.472	–	0.507
NCI-H1650	–	–	–	–	–	–	–	–	–	0.754	–	0.688	0.602	0.681	0.403	0.399	0.377	0.353
NCI-H1703	0.273	0.179	0.194	0.167	0.231	0.313	0.265	0.402	0.353	1.11	0.871	0.654	0.448	0.484	–	–	–	–
NCI-H2228	0.477	0.589	0.578	0.397	0.539	0.587	0.685	0.661	0.409	0.834	0.994	0.971	0.662	0.715	–	–	–	–
NCI-H2342	–	–	–	–	–	–	–	–	–	–	–	–	–	–	0.791	0.785	0.716	0.662
SW 900	–	–	–	–	–	–	–	–	–	–	–	–	–	–	0.448	0.501	0.412	0.373
